Here are results for nine compounds from patent publication US20250092043A1, “Kinase Inhibitors and Degraders” (Incyte Corporation, priority 2023, published 2025).

The target in one assay is T1, JAK2 (Homo sapiens, UniProt O60674, V617F).
T1 construct: their effect on JAK2 protein degradation in SET2 cells; host or cells: SET2 cells (human essential thrombocythemia)
T1 sequence (O60674 whole entry V617F): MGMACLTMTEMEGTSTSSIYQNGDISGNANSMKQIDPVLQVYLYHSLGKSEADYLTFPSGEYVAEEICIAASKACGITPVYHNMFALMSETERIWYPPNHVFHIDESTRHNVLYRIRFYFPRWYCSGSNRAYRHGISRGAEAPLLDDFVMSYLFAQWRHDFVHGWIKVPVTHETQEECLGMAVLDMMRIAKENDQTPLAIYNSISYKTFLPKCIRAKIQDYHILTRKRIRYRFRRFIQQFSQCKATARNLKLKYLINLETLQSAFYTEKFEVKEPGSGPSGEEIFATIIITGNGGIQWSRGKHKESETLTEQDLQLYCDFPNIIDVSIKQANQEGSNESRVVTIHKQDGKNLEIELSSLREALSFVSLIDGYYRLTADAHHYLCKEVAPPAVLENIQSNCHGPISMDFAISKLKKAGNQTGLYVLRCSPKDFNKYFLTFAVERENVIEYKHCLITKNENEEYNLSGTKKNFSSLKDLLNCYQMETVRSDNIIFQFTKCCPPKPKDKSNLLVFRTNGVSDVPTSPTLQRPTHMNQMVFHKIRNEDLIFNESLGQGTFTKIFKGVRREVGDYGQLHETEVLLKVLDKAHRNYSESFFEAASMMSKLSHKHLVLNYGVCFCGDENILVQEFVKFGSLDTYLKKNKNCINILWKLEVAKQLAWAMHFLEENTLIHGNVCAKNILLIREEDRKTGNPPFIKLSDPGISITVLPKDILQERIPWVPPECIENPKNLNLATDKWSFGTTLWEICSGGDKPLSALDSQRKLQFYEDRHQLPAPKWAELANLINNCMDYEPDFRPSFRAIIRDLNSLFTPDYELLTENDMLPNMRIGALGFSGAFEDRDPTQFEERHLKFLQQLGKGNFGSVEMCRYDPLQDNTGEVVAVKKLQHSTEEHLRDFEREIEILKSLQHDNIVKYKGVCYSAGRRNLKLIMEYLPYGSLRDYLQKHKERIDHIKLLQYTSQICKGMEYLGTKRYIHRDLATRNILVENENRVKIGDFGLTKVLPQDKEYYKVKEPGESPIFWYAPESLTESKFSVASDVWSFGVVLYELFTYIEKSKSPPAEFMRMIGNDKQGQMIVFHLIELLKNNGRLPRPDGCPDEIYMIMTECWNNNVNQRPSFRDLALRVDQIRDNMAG
The experiment in a line: Western blot quantitation of JAK2 degradation in SET2 cells. The format is cell-based. The conditions noted are these: 5 μM compound, 8 hours treatment, western blot densitometry vs. DMSO vehicle. As to the method: Example E. Western Blot Analysis of JAK2 Dependent SET2 Cells Treated with Compounds of the Present Disclosure
SET2 cells (DSMZ, catalog number ACC 608) are isolated from a person with human essential thrombocythemia and carry the JAK2 V617F mutation.
SET2 cells were cultured in RPMI culture medium (Gibco, catalog number 11875085) supplemented with 1% penicillin-streptomycin-glutamine (Thermo Fisher Scientific, catalog number 10378016) and 20% fetal bovine serum (Gibco, catalog number 10438034). Cultured cells were maintained at 37° C., 5% CO2 in the incubator.
Approximately 1,000,000 cells/well were added in 6-well plate containing 1.5 ml culture media with specified concentrations of compounds of the present disclosure or DMSO control. Cells were treated with concentrations of 10 uM, 5 uM, 1 uM, and 0.5 uM. Proteasome inhibitor MG-132 (Cell signaling, catalog number 2194) was added at 20 uM to an additional 10 uM compound treatment. The treatment period was 8 hours. After 8 hours, cells were collected in 1.5 mL microcentrifuge tubes. Tubes were centrifuged at 1500 rpm for 5 min. Supernatant was aspirated and samples were washed with 1 mL of cold PBS. The samples were centrifuged again at 1500 rpm for 5 min, supernatant was aspirated. The sample pellets were lysed using 150 μL of 1× lysing buffer (Cell Signaling Technologies—catalog number 9803S) supplemented with 1× Halt™ Protease and Phosphatase Inhibitor Cocktail (Thermo Fisher Scientific—catalog number 78447). Using Pierce™ BCA Protein Assay Kit (Thermo Fisher Scientific—catalog number 23225), protein concentration of the samples were quantitated. After normalizing sample concentration to approximately 20 ug/well, samples were loaded onto 4-12% Tris-glycine gels. Gels were transferred to nitrocellulose membranes using iBlot 2 Dry Blotting System and iBlot™ 2 Transfer Stacks, nitrocellulose (Thermo Fisher Scientific—catalog number IB23001). Following transfer, membranes were blocked with StartingBlock (Thermo Fisher Scientific—catalog number 37543). After 1 hour of blocking membranes, they were probed for JAK2, pSTAT5, STAT5, CRBN, and GAPDH (Cell Signaling—catalog numbers 3230, 4322, 25656, 71810, and 5174 respectively).
Compounds of the present disclosure were screened at various concentrations to determine their effect on JAK2 protein degradation in SET2 cells, using methods as described above. DMSO was used as the vehicle control with no PROTAC® added. Co-administration of 20 μM of the proteasome inhibitor MG-132 with the PROTAC® compound at its highest concentration (i.e., 5 or 10 μM) tested was conducted to support the hypothesis that the degradation was driven by the ubiquitin-proteosome system (UPS). Degradation was evaluated by western blot densitometry quantitation using the FluorChem M instrument software to analyze the intensity of the JAK2 band signal at various concentrations of PROTAC® compound vs. the JAK2 band signal of the DMSO vehicle. It is noted that ˜82% of JAK2 exists as the V617F mutant, with the remaining 18% of JAK2 being WT. Therefore, if the V617F mutant JAK2 is selectively degraded over the WT, the maximum degradation is ˜80%. Degradation was graded as A: […]; B: ≥40% to <60% degradation; C: ≥20% to <40% degradation, D: <20% to ≥10%; E<10%. ** refers to degradation at 0.5 μM.
(In western blotting, separated proteins are transferred to a membrane and probed.)
Regarding `COC(=O)N[C@@H]1CC[C@@H](n2c(=O)n(C)c3cnc4[nH]c(-c5ccc(C(=O)N6CCN(c7ccc8c(c7)C(=O)N(C7CCC(=O)NC7=O)C8=O)CC6)cc5)c(-c5ccc6c(cnn6C(C)C)c5)c4c32)C1` (stereo partly drawn) [Example 62, Methyl((1R,3R)-3-(7-(4-(4-(2-(2,6-dioxopiperidin-3-yl)-1,3-dioxoisoindolin-5-yl)piperazine-1-carbonyl)phenyl)-8-(1-isopropyl-1H-indazol-5-yl)-3-methyl-2-oxo-3,6-dihydroimidazo[4,5-d]pyrrolo[2,3-b]pyridin-1(2H)-yl)cyclopentyl)carbamate], the “JAK2 % Degradation in SET2” value is “E (E<10%)”.
On to `COC(=O)N[C@@H]1CC[C@@H](n2c(=O)n(C)c3cnc4[nH]c(-c5ccc(C(=O)N6CCC(CN7CCN(c8cccc9c8C(=O)N(C8CCC(=O)NC8=O)C9)CC7)CC6)cc5)c(-c5ccc6c(cnn6C(C)C)c5)c4c32)C1` (stereo partly drawn) [Example 63, Methyl((1R,3R)-3-(7-(4-(4-((4-(2-(2,6-dioxopiperidin-3-yl)-3-oxoisoindolin-4-yl)piperazin-1-yl)methyl)piperidine-1-carbonyl)phenyl)-8-(1-isopropyl-1H-indazol-5-yl)-3-methyl-2-oxo-3,6-dihydroimidazo[4,5-d]pyrrolo[2,3-b]pyridin-1(2H)-yl)cyclopentyl)carbamate], for which the “JAK2 % Degradation in SET2” value was “C (C: ≥20% to <40% degradation)”.

The assay is the same for the next values; noted with them: 10 μM compound, 8 hours treatment, western blot densitometry vs. DMSO vehicle.
For the compound `CN[C@@H](C)C(=O)N[C@H](C(=O)N1C[C@@H](NC(=O)[C@H]2CC[C@H](CNC(=O)c3ccc(-c4[nH]c5ncc6c(c5c4-c4ccc5c(cnn5C(C)C)c4)n([C@@H]4CC[C@@H](NC(=O)OC)C4)c(=O)n6C)cc3F)CC2)C[C@H]1C(=O)N[C@@H]1CCCc2ccccc21)C1CCCCC1` [Example 47, Methyl((1R,3R)-3-(7-(4-((((trans)-4-(((3S,5S)-1-((S)-2-cyclohexyl-2-((S)-2-(methylamino)propanamido)acetyl)-5-(((R)-1,2,3,4-tetrahydronaphthalen-1-yl)carbamoyl)pyrrolidin-3-yl)carbamoyl)cyclohexyl)methyl)carbamoyl)-3-fluorophenyl)-8-(1-isopropyl-1H-indazol-5-yl)-3-methyl-2-oxo-3,6-dihydroimidazo[4,5-d]pyrrolo[2,3-b]pyridin-1(2H)-yl)cyclopentyl)carbamate], the “JAK2 % Degradation in SET2” value is reported as “C (C: ≥20% to <40% degradation)”.
Take `CN[C@@H](C)C(=O)N[C@H](C(=O)N1C[C@@H](NC(=O)COCCOCCNC(=O)c2ccc(-c3[nH]c4ncc5c(c4c3-c3ccc4c(cnn4C(C)C)c3)n([C@@H]3CC[C@@H](NC(=O)OC)C3)c(=O)n5C)cc2F)C[C@H]1C(=O)N[C@@H]1CCCc2ccccc21)C1CCCCC1` [Example 51, Methyl((1R,3R)-3-(7-(4-((2-(2-(2-(((3S,5S)-1-((S)-2-cyclohexyl-2-((S)-2-(methylamino)propanamido)acetyl)-5-(((R)-1,2,3,4-tetrahydronaphthalen-1-yl)carbamoyl)pyrrolidin-3-yl)amino)-2-oxoethoxy)ethoxy)ethyl)carbamoyl)-3-fluorophenyl)-8-(1-isopropyl-1H-indazol-5-yl)-3-methyl-2-oxo-3,6-dihydroimidazo[4,5-d]pyrrolo[2,3-b]pyridin-1(2H)-yl)cyclopentyl)carbamate]: the “JAK2 % Degradation in SET2” value was “B (B: ≥40% to <60% degradation)”.
In the case of `COC(=O)N[C@@H]1CC[C@@H](n2c(=O)n(C)c3cnc4[nH]c(-c5ccc(C(=O)N6CCC(CC(=O)Nc7ccc8c(c7)CN(C7CCC(=O)NC7=O)C8=O)CC6)c(F)c5)c(-c5ccc6c(cnn6C(C)C)c5)c4c32)C1` (stereo partly drawn) [Example 53, Methyl((1R,3R)-3-(7-(4-(4-(2-((2-(2,6-dioxopiperidin-3-yl)-1-oxoisoindolin-5-yl)amino)-2-oxoethyl)piperidine-1-carbonyl)-3-fluorophenyl)-8-(1-isopropyl-1H-indazol-5-yl)-3-methyl-2-oxo-3,6-dihydroimidazo[4,5-d]pyrrolo[2,3-b]pyridin-1(2H)-yl)cyclopentyl)carbamate], the “JAK2 % Degradation in SET2” value is on record as “C (C: ≥20% to <40% degradation)”.
Consider `COC(=O)N[C@@H]1CC[C@@H](n2c(=O)n(C)c3cnc4[nH]c(-c5ccc(C(=O)NC[C@H]6CC[C@H](C(=O)Nc7ccc8c(c7)CN(C7CCC(=O)NC7=O)C8=O)CC6)c(F)c5)c(-c5ccc6c(cnn6C(C)C)c5)c4c32)C1` (stereo partly drawn) [Example 54, Methyl((1R,3R)-3-(7-(4-((((trans-)-4-((2-(2,6-dioxopiperidin-3-yl)-1-oxoisoindolin-5-yl)carbamoyl)cyclohexyl)methyl)carbamoyl)-3-fluorophenyl)-8-(1-isopropyl-1H-indazol-5-yl)-3-methyl-2-oxo-3,6-dihydroimidazo[4,5-d]pyrrolo[2,3-b]pyridin-1(2H)-yl)cyclopentyl)carbamate], for which the “JAK2 % Degradation in SET2” value was “C (C: ≥20% to <40% degradation)”.
For the compound `COC(=O)N[C@@H]1CC[C@@H](n2c(=O)n(C)c3cnc4[nH]c(-c5ccc(C(=O)N6CCC(C(=O)Nc7ccc8c(c7)CN(C7CCC(=O)NC7=O)C8=O)CC6)c(F)c5)c(-c5ccc6c(cnn6C(C)C)c5)c4c32)C1` (stereo partly drawn) [Example 58, Methyl((1R,3R)-3-(7-(4-(4-((2-(2,6-dioxopiperidin-3-yl)-1-oxoisoindolin-5-yl)carbamoyl)piperidine-1-carbonyl)-3-fluorophenyl)-8-(1-isopropyl-1H-indazol-5-yl)-3-methyl-2-oxo-3,6-dihydroimidazo[4,5-d]pyrrolo[2,3-b]pyridin-1(2H)-yl)cyclopentyl)carbamate], the “JAK2 % Degradation in SET2” value is given as “E (E<10%)”.
`COC(=O)N[C@@H]1CC[C@@H](n2c(=O)n(C)c3cnc4[nH]c(-c5ccc(C(=O)N6CCC(C(=O)Nc7ccc8c(c7)CN(C7CCC(=O)NC7=O)C8=O)CC6)cc5)c(-c5ccc6c(cnn6C(C)C)c5)c4c32)C1` (stereo partly drawn) [Example 60, Methyl((1R,3R)-3-(7-(4-(4-((2-(2,6-dioxopiperidin-3-yl)-1-oxoisoindolin-5-yl)carbamoyl)piperidine-1-carbonyl)phenyl)-8-(1-isopropyl-1H-indazol-5-yl)-3-methyl-2-oxo-3,6-dihydroimidazo[4,5-d]pyrrolo[2,3-b]pyridin-1(2H)-yl)cyclopentyl)carbamate]: the “JAK2 % Degradation in SET2” value is recorded as “C (C: ≥20% to <40% degradation)”.
The same measure, in the same setting: for `COC(=O)N[C@@H]1CC[C@@H](n2c(=O)n(C)c3cnc4[nH]c(-c5ccc(C(=O)N6CCC(CC(=O)Nc7ccc8c(c7)CN(C7CCC(=O)NC7=O)C8=O)CC6)cc5)c(-c5ccc6c(cnn6C(C)C)c5)c4c32)C1` (stereo partly drawn) [Example 61, Methyl((1R,3R)-3-(7-(4-(4-(2-((2-(2,6-dioxopiperidin-3-yl)-1-oxoisoindolin-5-yl)amino)-2-oxoethyl)piperidine-1-carbonyl)phenyl)-8-(1-isopropyl-1H-indazol-5-yl)-3-methyl-2-oxo-3,6-dihydroimidazo[4,5-d]pyrrolo[2,3-b]pyridin-1(2H)-yl)cyclopentyl)carbamate] the value was “C (C: ≥20% to <40% degradation)”.
